The text below walks through data of patent publication US9556201B2, “Bicyclic pyridines and analogs as sirtuin modulators” (GLAXOSMITHKLINE LLC, priority 2009, dated 2017).

Where only a bound is given, the exact number is not on record here.

This test deals with T1, SIRT1 (Homo sapiens, UniProt Q96EB6).
T1 sequence (Q96EB6 1-747): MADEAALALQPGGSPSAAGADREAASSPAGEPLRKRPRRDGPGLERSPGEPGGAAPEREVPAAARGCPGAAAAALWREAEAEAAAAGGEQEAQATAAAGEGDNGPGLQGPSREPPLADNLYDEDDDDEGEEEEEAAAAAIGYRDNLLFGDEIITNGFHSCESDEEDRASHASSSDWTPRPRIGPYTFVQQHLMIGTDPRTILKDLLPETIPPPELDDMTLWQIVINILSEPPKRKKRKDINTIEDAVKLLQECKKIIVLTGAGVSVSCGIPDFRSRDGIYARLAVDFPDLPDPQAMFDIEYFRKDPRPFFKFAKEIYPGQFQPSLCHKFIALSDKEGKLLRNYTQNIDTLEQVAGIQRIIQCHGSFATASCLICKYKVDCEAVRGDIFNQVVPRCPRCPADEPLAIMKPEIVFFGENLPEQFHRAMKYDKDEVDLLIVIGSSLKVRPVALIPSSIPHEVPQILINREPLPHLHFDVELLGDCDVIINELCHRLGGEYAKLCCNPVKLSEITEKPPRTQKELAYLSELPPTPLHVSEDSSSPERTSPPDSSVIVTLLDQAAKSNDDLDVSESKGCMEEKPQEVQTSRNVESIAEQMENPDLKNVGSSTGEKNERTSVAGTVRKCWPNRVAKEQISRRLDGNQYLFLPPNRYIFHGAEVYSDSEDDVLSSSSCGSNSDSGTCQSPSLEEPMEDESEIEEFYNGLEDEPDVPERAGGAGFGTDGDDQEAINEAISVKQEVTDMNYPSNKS
Description: Mass spectrometry based assay to identify modulators of SIRT1 activity (deacetylation of p53-based acetylated peptide substrate). The format is biochemical. As to conditions: for Emax: 25 min, read-out: % FOLD ACT. (percent maximum fold activation); for Emax / EC1.5: SIRT1 activation. The source says:
A mass spectrometry based assay was used to identify modulators of SIRT1 activity. The mass spectrometry based assay utilizes a peptide having 20 amino acid residues as follows: Ac-EE-K(biotin)-GQSTSSHSK(Ac)NleSTEG-K(5TMR)-EE-NH2 (SEQ ID NO: 1) wherein K(Ac) is an acetylated lysine residue and Nle is a norleucine. The peptide is labeled with the fluorophore 5TMR (excitation 540 nm/emission 580 nm) at the C-terminus. The sequence of the peptide substrate is based on p53 with several modifications. In addition, the methionine residue naturally present in the sequence was replaced with the norleucine because the methionine may be susceptible to oxidation during synthesis and purification.
The mass spectrometry assay is conducted as follows: […] peptide substrate and 120 μM βNAD^+ is incubated with 10 nM SIRT1 for 25 minutes at 25° C. in a reaction buffer (50 mM Tris-acetate pH 8, 137 mM NaCl, 2.7 mM KCl, 1 mM MgCl2, 5 mM DTT, 0.05% BSA). Test compounds may be added to the reaction as described above. The SirT1 gene is cloned into a T7-promoter containing vector and transformed into BL21(DE3). After the 25 minute incubation with SIRT1, 10 μL of 10% formic acid is added to stop the reaction. Reactions are sealed and frozen for later mass spec analysis. Determination of the mass of the substrate peptide allows for precise determination of the degree of acetylation (i.e. starting material) as compared to deacetylated peptide (product).
A control for inhibition of sirtuin activity is conducted by adding 1 μL of 500 mM nicotinamide as a negative control at the start of the reaction (e.g., permits determination of maximum sirtuin inhibition). A control for activation of sirtuin activity is conducted using 10 nM of sirtuin protein, with 1 μL of DMSO in place of compound, to determine the amount of deacetylation of the substrate at a given timepoint within the linear range of the assay. This timepoint is the same as that used for test compounds and, within the linear range, the endpoint represents a change in velocity.
For the above assay, SIRT1 protein was expressed and purified as follows. The SirT1 gene was cloned into a T7-promoter containing vector and transformed into BL21(DE3). The protein was expressed by induction with 1 mM IPTG as an N-terminal His-tag fusion protein at 18° C. overnight and harvested at 30,000×g. Cells were lysed with lysozyme in lysis buffer (50 mM Tris-HCl, 2 mM Tris[2-carboxyethyl]phosphine (TCEP), 10 μM ZnCl2, 200 mM NaCl) and further treated with sonication for 10 min for complete lysis. The protein was purified over a Ni-NTA column (Amersham) and fractions containing pure protein were pooled, concentrated and run over a sizing column (Sephadex S200 26/60 global). The peak containing soluble protein was collected and run on an Ion-exchange column (MonoQ). Gradient elution (200 mM-500 mM NaCl) yielded pure protein. This protein was concentrated and dialyzed against dialysis buffer (20 mM Tris-HCl, 2 mM TCEP) overnight. The protein was aliquoted and frozen at −80° C. until further use.

Consider `CC1(C)CC(NC(=O)N2CCOc3ccc(-c4cccc(C(F)(F)F)c4)nc32)CC(C)(C)N1` [Compound 634], for which the Emax is ≤ 200% and the EC1.5 result was “C (EC1.5>25 μM)”.
For the compound `O=C1CCCN(C(=O)Nc2ccncc2)c2nc(-c3cccc(Cl)c3)ccc21` [Compound 756], the EC1.5 (concentration giving 1.5-fold activation) fell in the range of 1 to 25 µM and the Emax was > 200%.
In the same order, the values of `O=C(Nc1ccncc1)N1CCOc2cnc(-c3cccc(N4CCCC4)c3)nc21` [Compound 722] are 1 to 25 µM and > 200%.
In the same order, the values of `CCN1CCCN(C(=O)Nc2ccncc2F)c2nc(-c3cccc(Cl)c3)ccc21` [Compound 808] are 1 to 25 µM and > 200%.
In the same order, the values of `CCN1C(=O)CCN(C(=O)Nc2ccncc2F)c2nc(-c3cccc(Cl)c3)ccc21` [Compound 774] are > 25 µM and ≤ 200%.
`O=C(c1cccc(OCC(O)CO)c1)N1CCCc2ccc(-c3cccc(C(F)(F)F)c3)nc21` (centres unmarked) [Compound 642, (3-(2,3-dihydroxypropoxy)phenyl)(7-(3-(trifluoromethyl)phenyl)-3,4-dihydro-1,8-naphthyridin-1(2H)-yl)methanone]: the Emax is ≤ 200% and the EC1.5 entry is on record as “C (EC1.5>25 μM)”.
In the same order, the values of `O=C(Nc1ccccn1)N1CCCc2ccc(-c3cccc(F)c3)nc21` [Compound 649] are > 200% and “A (EC1.5<1.0 μM)”.
In the case of `CC1(C)CCN(C(=O)Nc2cccnc2)c2nc(-c3cccc(Cl)c3)ccc2C1=O` [Compound 833], the EC1.5 (concentration giving 1.5-fold activation) was > 25 µM and the Emax was ≤ 200%.
In the same order, the values of `O=C(Nc1ccncc1F)N1CCOc2ncc(-c3cccc(C(F)(F)F)c3)nc21` [Compound 724] are 1 to 25 µM and > 200%.
In the same order, the values of `O=C1CCCN(C(=O)Nc2ccncc2F)c2nc(-c3cccc(C(F)(F)F)c3)ccc21` [Compound 821] are 1 to 25 µM and > 200%.
The like results for `Cc1cnc(NC(=O)N2CCCOc3ccc(-c4cccc(Cl)c4)nc32)s1` [Compound 704] were, in that order, 1 to 25 µM and ≤ 200%.
Take `O=C(Nc1ccc(F)cn1)N1CCCCc2ccc(-c3cccc(C(F)(F)F)c3)nc21` [Compound 816]: the EC1.5 (concentration giving 1.5-fold activation) is > 25 µM and the Emax is ≤ 200%.
In the same order, the values of `CCN1C(=O)CCN(C(=O)Nc2ccccn2)c2nc(-c3cccc(Cl)c3)ccc21` [Compound 765, 7-(3-chlorophenyl)-1-ethyl-2-oxo-N-(pyridin-2-yl)-3,4-dihydro-1H-pyrido[2,3-b][1,4]diazepine-5(2H)-carboxamide] are > 25 µM and ≤ 200%.
The like results for `O=C1CCCN(C(=O)Nc2ccncc2)c2nc(-c3cccc(C(F)(F)F)c3)ccc21` [Compound 828] were, in that order, 1 to 25 µM and > 200%.
Take `CN1CCN(C(=O)NC2CCOC2=O)c2nc(-c3cccc(C(F)(F)F)c3)ccc21` (centres unmarked) [Compound 540]: the Emax was ≤ 200% and the EC1.5 result is “C (EC1.5>25 μM)”.
As for `O=C(Nc1ccncc1)N1CCOc2ncc(-c3cccc(C(F)(F)F)c3)nc21` [Compound 723], the EC1.5 (concentration giving 1.5-fold activation) lay in the range of 1 to 25 µM and the Emax is ≤ 200%.
Turning to `O=C(Nc1ccncn1)N1CCOc2ccc(-c3cccc(F)c3)nc21` [Compound 514], the Emax is > 200% and the EC1.5 result is listed as “A (EC1.5<1.0 μM)”.
The like results for `O=C(Nc1ccncc1)N1CCCOc2ccc(-c3cccc(F)c3)nc21` [Compound 550] were, in that order, > 200% and “B (EC1.5 1-25 μM)”.
With `Cc1cccc(NC(=O)N2CCCC(F)(F)c3ccc(-c4cccc(Cl)c4)nc32)n1` [Compound 780], the EC1.5 (concentration giving 1.5-fold activation) was > 25 µM and the Emax was ≤ 200%.
`Cc1cc(NC(=O)N2CCOc3c(N4CCCC4)nc(-c4cccc(F)c4)nc32)cc(C)n1` [Compound 718]: the EC1.5 (concentration giving 1.5-fold activation) fell in the range of 1 to 25 µM and the Emax was ≤ 200%.
In the same order, the values of `O=C(Nc1ccncn1)N1CCCCc2ccc(-c3cccc(Cl)c3)nc21` [Compound 755] are 1 to 25 µM and > 200%.
`Cc1cncc(NC(=O)N2CCCOc3ccc(-c4ccc(C)nc4)nc32)c1` [Compound 636]: the Emax was ≤ 200% and the EC1.5 result was “C (EC1.5>25 μM)”.
On to `O=C(Nc1ccccn1)N1CCCc2ccc(-c3cccc(Cl)c3)nc21` [Compound 652], for which the Emax is > 200% and the EC1.5 result is given as “A (EC1.5<1.0 μM)”.
As to `CCN1CCCN(C(=O)Nc2cccnc2)c2nc(-c3cccc(Cl)c3)ccc21` [Compound 789, 7-(3-chlorophenyl)-1-ethyl-N-(pyridin-3-yl)-3,4-dihydro-1H-pyrido[2,3-b][1,4]diazepine-5(2H)-carboxamide], the EC1.5 (concentration giving 1.5-fold activation) is 1 to 25 µM and the Emax is > 200%.
In the same order, the values of `Cn1nccc1NC(=O)N1CCCOc2ccc(-c3cccc(Cl)c3)nc21` [Compound 706] are > 25 µM and ≤ 200%.
The like results for `O=C(Nc1ccncc1F)N1CCCOc2ccc(-c3cccc(Cl)c3)nc21` [Compound 769] were, in that order, 1 to 25 µM and > 200%.
In the same order, the values of `O=C(Nc1cccnn1)N1CCCOc2ccc(-c3cccc(Cl)c3)nc21` [Compound 867] are 1 to 25 µM and > 200%.
On to `CN1C(=O)CN(C(=O)Nc2cncnc2)c2nc(-c3cccc(C(F)(F)F)c3)ccc21` [Compound 527], for which the Emax was ≤ 200% and the EC1.5 entry is “B (EC1.5 1-25 μM)”.
On to `O=C(Nc1ccncc1F)N1CCCC(F)(F)c2ccc(-c3cccc(Cl)c3)nc21` [Compound 782], for which the EC1.5 (concentration giving 1.5-fold activation) was > 25 µM and the Emax was ≤ 200%.
Take `CN1C(=O)CN(C(=O)NC2CCOC2=O)c2nc(-c3cccc(C(F)(F)F)c3)ccc21` (centres unmarked) [Compound 522]: the Emax was ≤ 200% and the EC1.5 entry is recorded as “C (EC1.5>25 μM)”.
Regarding `Cc1cc(NC(=O)N2CCCC(F)(F)c3ccc(-c4cccc(Cl)c4)nc32)cc(C)n1` [Compound 772], the EC1.5 (concentration giving 1.5-fold activation) is 1 to 25 µM and the Emax was > 200%.
In the same order, the values of `Cc1cccnc1NC(=O)N1CCCOc2ccc(-c3cccc(Cl)c3)nc21` [Compound 871] are > 25 µM and ≤ 200%.
`Cc1cc(-c2cccc(Cl)c2)nc2c1OCCN2C(=O)Nc1ccncc1` [Compound 686]: the Emax was > 200% and the EC1.5 entry is recorded as “A (EC1.5<1.0 μM)”.
Take `O=C1NCc2cccc(NC(=O)N3CCCOc4ccc(-c5cccc(Cl)c5)nc43)c21` [Compound 885]: the EC1.5 (concentration giving 1.5-fold activation) fell in the range of 1 to 25 µM and the Emax was ≤ 200%.
